Data taken from patent US20240350430A1, “GROWTH INHIBITOR OF METASTATIC HUMAN PROSTATE CANCER CELLS” (Watanabe Oyster Laboratory Co., Ltd., priority 2021, published 2024).

Tests used:
[1] = test system: PC-3 cells; assay: Colony formation of PC-3 cells; type: cell-based, human; settings: DHMBA 1 or 10 μM, nine days
Procedure: The PC-3 and DU-145 cells (1×10^3/in 2 ml of a culture fluid per hole using a six-hole plate) were cultured in a DMEM culture fluid (containing 10% of FBS, 1% of P/S, and 1% of fungizone) containing the DHMBA (1 and 10 μM) under 5% of CO2, at 37° C., for nine days. After the culture, the culture fluid was removed, the cells were washed twice with PBS, 95% of methanol (0.5 ml) was added, and the cells were fixed for 20 minutes. After the fixation, each well of a culture dish was washed four times with PBS (1 ml), and after that 0.5% of crystal violet (0.5 ml) was added, and the product was left for two hours at room temperature for staining. After the stain solution was washed to be removed, drying was performed, and after that colonies containing 50 or more cells were counted by a microscope (Olympus MTV-3, Olympus Corporation, Tokyo, Japan).
FIG. 1(A) is a drawing in which the PC-3 cells (the cell number of 1×10^3/per well of a six-well plate) were cultured under 5% of CO2, at 37° C., for nine days in a DMEM culture fluid (containing 10% of FBS, 1% of P/S, and 1% of fungizone) containing the DHMBA (1 or 10 μM).
FIG. 1(B) is a diagram of counting the number of colonies.

[2] = test system: DU-145 cells; assay: Cell death of sub-confluent DU-145 cells (adherent cell counting); type: cell-based, human
Procedure: The PC-3 and DU-145 cells (1×10^5/in 1 ml of a culture fluid per hole using a 24-hole plate) were cultured in a DMEM culture fluid (containing 10% of FBS, 1% of P/S, and 1% of fungizone) under 5% of CO2, at 37° C., for three days, and when the cells reached sub-confluence, the culture fluid was exchanged for the one containing the DHMBA (0.01, 0.1, 1, 10, 100, or 1000 μM), and the cells were cultured for 24 and 48 hours. After the culture, the cells adhering to the bottom surface of the dish were removed and counted. In another experiment, after the culture for three days, when the cells reached sub-confluence, the culture fluid was exchanged for a culture fluid containing the DHMBA (1 or 10 μM) and a caspase-3 inhibitor (10 μM), and the cells were counted after the culture for 48 hours. Further, after the culture for three days, when the cells reached sub-confluence, the culture fluid was exchanged for a culture fluid obtained by adding gemcitabine (0.1, 1, 10, 50 or 100 nM) or CH223191 (1, 10, and 25 μM) to a DMEM culture fluid containing the DHMBA (1 or 10 μM) or not containing the DHMBA, and the cells were counted after the culture for 48 hours. […]

COc1c(O)cc(CO)cc1O [DHMBA, 3,5-dihydroxy-4-methoxybenzyl alcohol]
colony formation [1]: significantly inhibited
cell death ([2]; DHMBA 1, 10, 100, or 1000 μM, 24 and 48 hours): significantly increased
increase of cell death in the presence of caspase-3 inhibitor ([2]; DHMBA 1 or 10 μM with caspase-3 inhibitor 10 μM, 48 hours): not caused
